Measurements published in ChEMBL document CHEMBL3301458, “MMV Malaria Box hERG screening”.
Activity calls are given as the source filed them. How the calls were made is not given here.

What was measured:
[1] = molecular target: T1, hERG (Kv11.1, KCNH2) (Homo sapiens, UniProt Q12809); assay: in vitro
Description: MMV: Malaria Box compounds were tested for inhibition of the human ether a go-go related gene (hERG), Kv11.1 channel, using IonWorks 384-well patch clamp electrophysiology at 11.1uM (3 independent assay plates up to 12 cells per concentration).

[2] = molecular target: T1, hERG (Kv11.1, KCNH2); assay: in vitro; remark: listed apart in the source
Description: MMV: Malaria Box compounds were tested for inhibition of the human ether a go-go related gene (hERG), Kv11.1 channel, using IonWorks 384-well patch clamp electrophysiology at 1.1uM (3 independent assay plates up to 12 cells per concentration).

T1 sequence (Q12809 whole entry): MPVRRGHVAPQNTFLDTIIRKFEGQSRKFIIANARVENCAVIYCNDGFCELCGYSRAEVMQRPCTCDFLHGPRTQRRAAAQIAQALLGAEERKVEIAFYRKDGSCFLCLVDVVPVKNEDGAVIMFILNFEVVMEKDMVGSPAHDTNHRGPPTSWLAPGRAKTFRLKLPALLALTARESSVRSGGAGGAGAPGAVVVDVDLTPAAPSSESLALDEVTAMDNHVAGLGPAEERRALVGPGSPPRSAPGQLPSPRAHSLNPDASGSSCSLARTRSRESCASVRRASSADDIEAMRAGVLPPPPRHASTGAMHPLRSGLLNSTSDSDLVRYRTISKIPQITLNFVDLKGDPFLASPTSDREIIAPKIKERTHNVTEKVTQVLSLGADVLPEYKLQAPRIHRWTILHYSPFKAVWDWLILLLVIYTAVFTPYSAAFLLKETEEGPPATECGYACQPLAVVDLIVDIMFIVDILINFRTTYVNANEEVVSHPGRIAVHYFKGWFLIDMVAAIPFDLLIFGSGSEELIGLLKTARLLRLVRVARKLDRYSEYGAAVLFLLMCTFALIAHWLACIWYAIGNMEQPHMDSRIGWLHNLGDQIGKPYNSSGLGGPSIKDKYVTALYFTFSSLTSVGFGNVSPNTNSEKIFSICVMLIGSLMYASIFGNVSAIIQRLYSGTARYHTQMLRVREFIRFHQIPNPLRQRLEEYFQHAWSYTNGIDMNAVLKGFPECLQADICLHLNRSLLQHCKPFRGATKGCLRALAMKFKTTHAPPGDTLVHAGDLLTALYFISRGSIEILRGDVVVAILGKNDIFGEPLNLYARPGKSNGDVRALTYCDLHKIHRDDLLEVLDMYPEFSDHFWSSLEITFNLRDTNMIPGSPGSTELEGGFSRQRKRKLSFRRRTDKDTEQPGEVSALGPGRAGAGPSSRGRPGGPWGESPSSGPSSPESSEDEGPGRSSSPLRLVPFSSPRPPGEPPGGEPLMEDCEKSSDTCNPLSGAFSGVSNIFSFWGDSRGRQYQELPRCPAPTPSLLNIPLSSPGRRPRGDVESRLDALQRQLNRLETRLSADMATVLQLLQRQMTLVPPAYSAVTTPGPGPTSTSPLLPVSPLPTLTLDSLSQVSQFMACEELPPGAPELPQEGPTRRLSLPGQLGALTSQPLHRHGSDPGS

| SMILES | inhibition at 11.1 µM [1] | inhibition at 1.1 µM [2] |
| --- | --- | --- |
| CCCc1c(CC)c(=N)c2ccccc2n1C | 26% | 0% |
| CCOC(=O)c1c(NC(=O)c2ccccc2)sc2c(O)c(CN(CC)CC)ccc12 | 23% (inactive) | 4% |
| O=C(Nc1ccsc1C(=O)NC1CCCCC1)c1ccc(F)cc1 | 3% (inactive) | -3% |
| Cn1c(C(=O)c2cccc3ccccc23)nc2ccccc21 | 1% (inactive) | -4% |
| CC1CC(C)CN(C(=O)c2ccc(Cl)cc2Cl)C1 (stereo not drawn) | 5% (inactive) | -3% |
| COc1cccc(C2(C)Nc3ccccc3-c3nc4ccccc4n32)c1 (stereo not drawn) | 18% (inactive) | 10% |
| CCn1nc(-c2ccc(C(=O)OC)cc2)nc2c(=O)n(C)c(=O)nc1-2 | 9% (inactive) | -2% |
| CCC(=O)Nc1nnc(Cc2ccc(OC)c(OC)c2)s1 | -7% (inactive) | -1% |
| Cc1sc2ncnc(Sc3nc4ccccc4[nH]3)c2c1C | 16% (inactive) | 8% |
| O=C(NCC(c1ccsc1)N1CCCCCC1)c1ccc(C(F)(F)F)cc1 (stereo not drawn) | 94% | 50% |
| CCCCc1c(CCC)c(=N)c2ccccc2n1C | 74% (active) | 29% |
| Cc1ccc(N2C(=O)C3C(C2=O)C2(c4ccccc4)C(=O)C3(c3ccccc3)C(c3ccccc3)=C2c2ccccc2)cc1 (stereo not drawn) | -3% (inactive) | 10% |
| COc1ccc(-n2ccnc2SCC(=O)Nc2cc(C)ccc2C)c(OC)c1 | 29% | 5% |
| CCCCCCC(O)(c1ccc(F)cc1)C(CN1CCOCC1)c1ccccc1 (stereo not drawn) | 71% (active) | 0% |
| O=C(Nc1ccc(Cl)cc1)N1CCN(c2ccc3nncn3n2)CC1 | 58% (active) | 0% |
| Cc1ccccc1OCCSc1nc2ccc(NC(=O)c3ccccc3)cc2s1 | 2% (inactive) | -9% |
| COc1ccc(CN2CCN(Cc3ccccc3)CC2)c(O)c1 | 66% (active) | 15% |
| Cc1ccnc(NC(c2cccc(OCc3ccccc3)c2)c2ccc3cccnc3c2O)c1 (stereo not drawn) | 24% (inactive) | 6% |
| CCC(c1ccccc1)c1nn2c(-c3cccs3)nnc2s1 (stereo not drawn) | 42% | 8% |
| CCOc1ccc(/C=C/c2nc(=O)c3ccccc3o2)cc1 | 19% (inactive) | 1% |
| Cc1ccc(Nc2nc(N)c3ccccc3n2)cc1Cl | 85% (active) | 5% |
| COc1ccc(Nc2cc(C)nc(NCc3ccccc3)n2)cc1 | 67% (active) | > 5% |
| COc1cc(CNCCc2ccc(Cl)cc2)cc(OC)c1O | 59% (active) | 16% |
| CN1CCN(c2nc(Nc3ccc(O)cc3)nc3ccccc23)CC1 | 31% | 31% |
| CCCCCCc1cc2cc(-c3nc4ccccc4[nH]3)c(=Nc3ccccc3C)oc2cc1O | -1% (inactive) | 2% |

| SMILES | inhibition at 11.1 µM [1] | inhibition at 1.1 µM [2] |
| --- | --- | --- |
| Cc1cc(Nc2cccc(F)c2)nc(NCc2ccccc2)n1 | 73% (active) | 11% |
| CCOC(=O)c1cnc2ccc(OC)cc2c1NCc1ccccc1 | 4% (inactive) | -2% |
| Cc1ccc(CSCc2ccc(C(=O)NC3CC3)o2)cc1 | 26% | 2% |
| CCOC(=O)C1CCN(C(=O)CN2C(=O)c3ccccc3C2c2c[nH]c3ccccc23)CC1 (stereo not drawn) | 18% (inactive) | -9% |
| O=C1c2ccccc2-c2nnc(-c3ccc(Br)cc3)cc21 | 2% (inactive) | -3% |
| OC1=C2C(=Nc3ccccc3SC2c2ccccc2)c2ccccc21 (stereo not drawn) | 16% (inactive) | 15% |
| c1ccc(CNc2nc(Nc3ccccc3)nc3ccccc23)cc1 | 69% (active) | 17% |
| CCOc1c(Br)cc(C2C(C(=O)OC)=CN(C)C=C2C(=O)OC)cc1OC | 21% (inactive) | 3% |
| O=C(Cc1ccccc1)NC(c1ccc(Cl)cc1)c1c(O)ccc2ccccc12 (stereo not drawn) | -1% (inactive) | -2% |
| Oc1ccc(Br)cc1CN1CCN(Cc2cccc(F)c2)CC1 | 18% (inactive) | -1% |
| COc1ccc(C(C)=O)cc1N1C(=O)C2C(C1=O)C1(c3ccccc3)C(=O)C2(c2ccccc2)C(c2ccc(C)cc2)=C1c1ccc(C)cc1 (stereo not drawn) | -1% (inactive) | -5% |
| CCN(CC)c1cc(C)c2cc(NC(=O)c3cccc(OC)c3)ccc2n1 | 103% | 85% |
| CC(C)(C)C(=O)Nc1ccc(C(=O)Nc2cccc(-c3nc4ccccc4[nH]3)c2)cc1 | 40% | 8% |
| CN(C)c1ccc(C(O)(c2ccc(N(C)C)cc2)c2ccc(N(C)C)cc2)cc1 [METHYLROSANILINE] | 103% (active) | 48% |
| CC(C)(C)c1ccc(O)c(CNC2CCCCC2)c1 | 35% | 10% |
| Brc1ccc(Nc2nc3ccccc3nc2Nc2ccc(Br)cc2)cc1 | 2% (inactive) | 2% |
| Cc1c(C)n(Cc2ccc(F)cc2)c2ccc(C(=O)NCc3ccco3)cc12 | 5% (inactive) | -2% |
| Cc1ccccc1OCCSc1nc2ccc(NC(=O)c3cccs3)cc2s1 | 24% (inactive) | 12% |
| COc1ccc(NC(=O)C2c3ccccc3C(=O)N(CC(C)C)C2c2cccs2)cc1Cl (stereo not drawn) | 24% (inactive) | 0% |
| CSc1ccccc1C(=O)Nc1nc(-c2ccccn2)cs1 | 39% | 15% |
| CC(C)(C)CC(C)(C)NCC(O)COc1ccc2c(c1)CCC2 (stereo not drawn) | 62% (active) | 8% |
| Cc1sc(NC(=O)c2ccccc2)c(C(c2cccs2)N2CCN(c3ccccc3)CC2)c1C (stereo not drawn) | 9% (inactive) | 9% |
| Nc1ccc(-c2nc3cc(Cc4ccc5[nH]c(-c6ccc(N)cc6)nc5c4)ccc3[nH]2)cc1 | 21% (inactive) | 12% |
| Cc1ccc2nc(C)cc(Nc3cccc(C(F)(F)F)c3)c2c1 | 106% (active) | 48% |
| Clc1cc(Br)ccc1-c1ccc(CNCC2CCNCC2)o1 | 83% (active) | 16% |

| SMILES | inhibition at 11.1 µM [1] | inhibition at 1.1 µM [2] |
| --- | --- | --- |
| COCCn1c(C)nc2ccccc2c1=O | 1% (inactive) | 3% |
| COc1ccc(CN2CCCC(C(=O)c3ccc(C(F)(F)F)cc3)C2)c(O)c1 (stereo not drawn) | 100% | 58% |
| CCOc1cc(Br)c(C(C)NC(=O)c2cccc(OC)c2)cc1OCC (stereo not drawn) | 2% (inactive) | -12% |
| Cc1ccc2c(C)nc(Nc3nc(C)cc(-c4ccccc4)n3)nc2c1 | 4% (inactive) | -1% |
| O=C1CC(O)(C(F)(F)C(F)(F)F)Oc2ccccc21 (stereo not drawn) | 3% (inactive) | -9% |
| Cc1ccc(S(=O)(=O)c2c(COC(=O)c3cccc(C)c3)c(-c3ccccc3)nn2C)cc1 | 12% (inactive) | 4% |
| CCOc1cccc2sc(N(Cc3cccnc3)C(=O)C3CCCCC3)nc12 | 54% (active) | 8% |
| CCOc1ccc(CN2CCN(CC(O)COc3ccc(OCC(O)CN4CCN(Cc5ccc(OCC)cc5)CC4)cc3)CC2)cc1 (stereo not drawn) | 83% | 70% |
| COc1cc(C(=O)Nc2ccc(-c3nc4ccccc4[nH]3)cc2)cc(OC)c1OC | 17% (inactive) | -12% |
| COc1ccc(C(O)(CCC(C)C)C(CN2CCOCC2)c2ccc(Cl)cc2)cc1 (stereo not drawn) | 109% (active) | 4% |
| CN(C)c1ccc(-c2nc3cc(N)ccc3[nH]2)cc1 | 36% | 14% |
| CC1CCN(Cc2c(O)ccc3cc(-c4nc5ccccc5s4)c(=O)oc23)CC1 | 10% (inactive) | -3% |
| FC(F)(F)c1cccc(Nc2nc3ccccc3nc2Nc2cccc(C(F)(F)F)c2)c1 | 8% (inactive) | -4% |
| CCCCNc1nc(NC(C)(C)C)nc(NC(C)(C)C)n1 | 1% (inactive) | -1% |
| COc1ccc(C2=C(c3ccc(OC)cc3)C3(c4ccccc4)C(=O)C2(c2ccccc2)C2C(=O)N(c4ccc(C)cc4)C(=O)C23)cc1 (stereo not drawn) | 6% (inactive) | -8% |
| CCOc1cccc(C(=O)Nc2ccc(-c3nc4ccccc4[nH]3)cc2)c1 | -7% (inactive) | 0% |
| O=C(NNc1cc(N2CCCC2)nc(N2CCCC2)n1)c1ccccc1 | 35% | 4% |
| O=C(Nc1ccc(F)c(Cl)c1)Nc1ccc(Cl)c(Cl)c1 | -3% (inactive) | -11% |
| c1ccc(-c2ccc(-c3nc4ccccc4[nH]3)cc2)cc1 | -8% (inactive) | -2% |
| Cc1[nH]c(-c2ccc(F)cc2)cc1C(=O)NC1CCN(Cc2ccccc2)CC1 | 96% | 55% |
| CN1CCN(c2c3c(c(C#N)c4nc5ccccc5n24)CCC3)CC1 | 45% | 7% |
| Cn1c(=O)c2cc(C(=O)NCCCN3CCCCCC3)sc2c2ccccc21 | 6% (inactive) | -5% |
| O=C(NCC1Cc2cccc(-c3ccncc3)c2O1)c1csc2c1CCCC2 (stereo not drawn) | 61% (active) | 13% |
| CCc1c(C)c(=N)c2ccccc2n1C | 11% (inactive) | 6% |
